The values below come from publication PMC7367283, “A PIP2 substitute mediates voltage sensor-pore coupling in KCNQ activation” (Communications Biology, 2020).

Values joined by “and” are separate entries in the source; they are usually repeats but may differ in a detail not shown here. Equal entries are not always repeated.

This assay addresses KCNQ1 K354A/K358A (Homo sapiens, UniProt P51787, K354A/K358A). The experiment in a line: Two-electrode voltage clamp of mutant KCNQ1 in Xenopus oocytes. The assay is classed as cell-based. From the text: In a previous study, mutation of residues in the predicted PIP2-binding site reduced KCNQ1 currents. CP1 modifies voltage-dependent activation of KCNQ1 channels by shifting the voltage dependence of channel opening, measured as the voltage dependence of the conductance (G–V) relationship, to more negative voltages (Fig. 1c) among other characteristics (see below). We made mutations to the residues around the CP1-interacting pocket as indicated by molecular docking (Fig. 1b), and examined the effects of the mutations on the CP1-induced shift of the G–V relationship. The mutations of the KCNQ1 residues that interact with CP1 in docking simulations reduced the shift of the G–V relationship (Fig. 1c, d), supporting the interaction of these residues with CP1.
Complementary DNA (cDNA) encoding human KCNQ1 (UniProtKB/Swiss‐Prot under accession no. P51787), KCNQ2 (O43526), KCNQ3 (O43525), KCNE1 (P15382), Kir1.1 (P48048), hERG (Q12809), KV4.2 (Q63881), NaV1.5 (Q14524), NaV β1 (Q07699), CaV1.2 (Q13936), CaV β1a (Q02641), CaV α2/δ1 (P54289), and HCN4 (Q9Y3Q4) were subcloned into oocyte expression vectors, respectively. Site-directed mutations of the KCNQ1 channel were all produced by overlap extension polymerase chain reaction (PCR) with high-fidelity Pfu polymerase (Stratagene, CA). The presence of the desired mutation was verified by sequencing the PCR-amplified regions. All the primer sequences used in this study are available in Supplementary Table 1. The complementary RNA (cRNA) of all these channels and mutations was transcribed in vitro with the T3, T7, or SP6 polymerase mMessage mMachine kit (Invitrogen, Thermo Fisher Scientific, MO).
The use of Xenopus laevis to obtain oocytes was approved by the Washington University Animal Studies Committee (protocol #20190030). Oocytes were manually dispersed and digested with collagenase (0.5 mg/ml, Sigma-Aldrich, Saint Louis, MO) to remove the follicle cell layer. Stage V or VI oocytes were selected and injected with cRNAs (9.2 ng) of channel or mutations. Especially, to characterize IKs, a mix of cRNAs at a molar ratio 4:1 (KCNQ1:KCNE1) was injected. For KCNQ2/KCNQ3, the molar ratio was 1:1 (KCNQ2:KCNQ3). For sodium channels, a 3:1 molar ratio (β1:NaV1.5) and for calcium channels a weight ratio 1:1:1 (β1:α2/δ1:CaV1.2) was injected, respectively. Injected oocytes were incubated in ND96 solution containing (in mM) 96 NaCl, 2 KCl, 1.8 CaCl2, 1 MgCl2, and 5 HEPES, pH 7.6, supplemented with 2.5 mM Na pyruvate and 1% penicillin–streptomycin, at 18 °C for 3–7 days before recording.
The whole-oocyte ionic currents were recorded with a GeneClamp 500B amplifier (Axon Instruments, CA) or iTEV90 amplifier (HEKA, Germany) and then sampled at 1 kHz and low-pass-filtered at 2 kHz. The Patchmaster software (HEKA, Germany) was used to acquire data. The Kir1.1 current was recorded with a high K^+ bath solution containing (in mM) 96 KCl, 4 NaCl, 1 CaCl2, 2 MgCl2, and 10 HEPES, pH 7.3–7.4. The HCN4 current was recorded in ND66 solution containing (in mM) 66 NaCl, 32 KCl, 1.8 CaCl2, 1 MgCl2, and 5 HEPES, pH 7.6. All the other potassium channels were recorded in ND96 solution. The currents of CaV1.2 channel were recorded in 40 mM Ba^2+ bath solution containing (in mM) 40 Ba(OH)2, 50 TEA-OH, 2 KOH, and 5 HEPES, adjusted to pH 7.4 with methanesulfonic acid. CP1 (DISODIUM 5-BROMO-2-[9-CHLORO-3-(SULFONATOOXY) NAPHTHO [1,2-B] THIEN-2-YL]-1H-INDOL-3-YL SULFATE, Sigma-Aldrich, MO) and Chromanol 293B (Sigma-Aldrich, MO) were dissolved in bath solutions. All the chemicals were purchased from Sigma-Aldrich. To measure the I–V relations of the Kir1.1 channel, the test voltage was set from −100 to +60 mV for 1 s with 20-mV increments. The test pulses were stepped from a holding potential of 0 mV and then stepped back to 0 mV. The HCN4 currents were recorded by a test pulse between −30 and −140 mV in 10-mV step from a holding potential of −30 mV. […]

For `O=S(=O)([O-])Oc1c(-c2sc3c(ccc4cccc(Cl)c43)c2OS(=O)(=O)[O-])[nH]c2ccc(Br)cc12.[Na+].[Na+]` [CP1, DISODIUM 5-BROMO-2-[9-CHLORO-3-(SULFONATOOXY) NAPHTHO [1,2-B] THIEN-2-YL]-1H-INDOL-3-YL SULFATE], the G/Gmax runs as follows: (10 µM CP1, 0 mV) 0.9071; (10 µM CP1, 10 mV) 0.9519; (10 µM CP1, 20 mV) 0.9897; (10 µM CP1, 30 mV) 1.0000; (10 µM CP1, -10 mV) 0.8497; (10 µM CP1, -20 mV) 0.7541. In addition, the G/Gmax is, setting by setting: (10 µM CP1, -30 mV) 0.6165; (10 µM CP1, -40 mV) 0.4576; (10 µM CP1, -50 mV) 0.3124; (10 µM CP1, -60 mV) 0.2094; (10 µM CP1, -70 mV) 0.1390; (10 µM CP1, -80 mV) 0.0950. The G/Gmax (10 µM CP1, -90 mV) is 0.0670; the G/Gmax (10 µM CP1, -100 mV) is given as 0.0415; the G/Gmax (10 µM CP1, -110 mV) stood at 0.0111; the G/Gmax (10 µM CP1, -120 mV) turned out to be 0.0033. Moreover, the “∆V1/2” value (10 µM CP1, individual oocytes) is 24.6605 mV and 42.476 mV and 38.8398 mV and 35.894 mV.
